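Briefly, cells in 96-well plates were exposed to five compound concentrations for 48 h, and endpoints were estimated by linear interpolation. GI50 is the concentration that inhibits growth by half.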 The source made the active and inactive calls. Rule as the data show it: active = GI50 up to about 1.1 µM and inactive = higher.
Columns and labels:
Experiment in all cases: NCI tumour cell line growth inhibition, 48 h
NCI-H23 = system: NCI-H23
HCC 2998 = system: HCC 2998
COLO 205 = system: COLO 205
U-251 = system: U-251
SR = system: SR
UACC-62 = system: UACC-62
786-0 = system: 786-0
NCI-H522 = system: NCI-H522
HOP-62 = system: HOP-62
DU-145 = system: DU-145
RPMI-8226 = system: RPMI-8226
Hs-578T = system: Hs-578T
SK-MEL-5 = system: SK-MEL-5
EKVX = system: EKVX
UO-31 = system: UO-31
OVCAR-3 = system: OVCAR-3
OVCAR-8 = system: OVCAR-8
NCI/ADR-RES = system: NCI/ADR-RES
SNB-19 = system: SNB-19
M14 = system: M14
IGROV-1 = system: IGROV-1
MDA-MB-435 = system: MDA-MB-435
Malme-3M = system: Malme-3M
SN12C = system: SN12C
TK-10 = system: TK-10
KM12 = system: KM12
BT-549 = system: BT-549
CCRF-CEM = system: CCRF-CEM
LOX IMVI = system: LOX IMVI
SF-268 = system: SF-268
MDA-N = system: MDA-N
K562 = system: K562
NCI-H460 = system: NCI-H460
ACHN = system: ACHN
T47D = system: T47D
MDA-MB-231 = system: MDA-MB-231
RXF 393 = system: RXF 393
SK-OV-3 = system: SK-OV-3
MOLT-4 = system: MOLT-4
MCF7 = system: MCF7
HT-29 = system: HT-29
SNB-75 = system: SNB-75
A549 = system: A549
HL-60 = system: HL-60
A498 = system: A498
HOP-92 = system: HOP-92
HCT-15 = system: HCT-15
HCT-116 = system: HCT-116
SK-MEL-28 = system: SK-MEL-28
CAKI-1 = system: CAKI-1
SF-295 = system: SF-295
UACC-257 = system: UACC-257
OVCAR-4 = system: OVCAR-4
OVCAR-5 = system: OVCAR-5
SK-MEL-2 = system: SK-MEL-2
PC-3 = system: PC-3
SW-620 = system: SW-620
SF-539 = system: SF-539
NCI-H226 = system: NCI-H226

For Fc1c(F)c(C(F)(F)F)c(F)c(F)c1N/N=C\c1c[nH]c2ccccc12, the GI50 (NCI-H23) was 3.95 µM (inactive), the GI50 (HCC 2998) was 1.85 µM (inactive) and the GI50 (COLO 205) was 1.28 µM (inactive). For the same compound, the GI50 (U-251) was 3.23 µM (inactive), the GI50 (SR) was 2.75 µM (inactive) and the GI50 (UACC-62) was 2.44 µM (inactive). The GI50 (786-0) was 3.44 µM (inactive), the GI50 (NCI-H522) was 1.74 µM (inactive) and the GI50 (HOP-62) was 1.55 µM (inactive). For the same compound, the GI50 (DU-145) was 3.64 µM (inactive), the GI50 (RPMI-8226) was 2.81 µM (inactive) and the GI50 (Hs-578T) was 8.38 µM (inactive). The GI50 (SK-MEL-5) was 1.82 µM (inactive), the GI50 (EKVX) was 2.84 µM (inactive) and the GI50 (UO-31) was 1.16 µM (inactive). For the same compound, the GI50 (OVCAR-3) was 1.87 µM (inactive), the GI50 (OVCAR-8) was 6.43 µM (inactive) and the GI50 (NCI/ADR-RES) was 2.13 µM (inactive). For the same compound, the GI50 (SNB-19) was 2.86 µM (inactive), the GI50 (M14) was 1.62 µM (inactive) and the GI50 (IGROV-1) was 1.26 µM (inactive). For the same compound, the GI50 (MDA-MB-435) was 1.51 µM (inactive), the GI50 (Malme-3M) was 3.92 µM (inactive) and the GI50 (SN12C) was 3.13 µM (inactive). The GI50 (TK-10) was 4.48 µM (inactive), the GI50 (KM12) was 1.94 µM (inactive) and the GI50 (BT-549) was 1.5 µM (inactive). The GI50 (CCRF-CEM) was 1.23 µM (inactive), the GI50 (LOX IMVI) was 3.3 µM (inactive) and the GI50 (SF-268) was 5.24 µM (inactive). For the same compound, the GI50 (MDA-N) was 1.72 µM (inactive), the GI50 (K562) was 2.87 µM (inactive) and the GI50 (NCI-H460) was 1.86 µM (inactive). The GI50 (ACHN) was 6.64 µM (inactive), the GI50 (T47D) was 2.4 µM (inactive) and the GI50 (MDA-MB-231) was 3.03 µM (inactive). The GI50 (RXF 393) was 2 µM (inactive), the GI50 (SK-OV-3) was 1.39 µM (inactive) and the GI50 (MOLT-4) was 2.19 µM (inactive). For the same compound, the GI50 (MCF7) was 2.69 µM (inactive), the GI50 (HT-29) was 2.48 µM (inactive) and the GI50 (SNB-75) was 1.27 µM (inactive). The GI50 (A549) was 3.16 µM (inactive), the GI50 (HL-60) was 2.54 µM (inactive) and the GI50 (A498) was 3.44 µM (inactive). The GI50 (HOP-92) was 3.61 µM (inactive), the GI50 (HCT-15) was 3.37 µM and the GI50 (HCT-116) was 3.73 µM (inactive). For the same compound, the GI50 (SK-MEL-28) was 6.82 µM (inactive), the GI50 (CAKI-1) was 2.55 µM (inactive) and the GI50 (SF-295) was 2.2 µM (inactive). The GI50 (UACC-257) was 3.52 µM (inactive), the GI50 (OVCAR-4) was 2.44 µM (inactive) and the GI50 (OVCAR-5) was 3.94 µM (inactive). The GI50 (SK-MEL-2) was 2.78 µM (inactive), the GI50 (PC-3) was 2.13 µM (inactive) and the GI50 (SW-620) was 3.37 µM (inactive).
In the case of Cc1cc(S(=O)(=O)NC2=Nc3ccccc3C(c3ccccc3)N2)c(S)cc1Cl (stereo not given), the GI50 (NCI-H23) is reported as > 100 µM (inactive), the GI50 (HCC 2998) is reported as > 100 µM (inactive) and the GI50 (COLO 205) is reported as > 100 µM (inactive). The GI50 (U-251) was 37.7 µM (inactive), the GI50 (SR) was 23.3 µM (inactive) and the GI50 (UACC-62) was > 100 µM (inactive). For the same compound, the GI50 (786-0) was 8.2 µM (inactive), the GI50 (NCI-H522) was > 100 µM (inactive) and the GI50 (HOP-62) was > 100 µM (inactive). For the same compound, the GI50 (DU-145) was > 100 µM (inactive), the GI50 (RPMI-8226) was 63.7 µM (inactive) and the GI50 (Hs-578T) was > 100 µM (inactive). The GI50 (SK-MEL-5) was > 100 µM (inactive), the GI50 (EKVX) was > 100 µM (inactive) and the GI50 (UO-31) was 24.9 µM (inactive). The GI50 (OVCAR-3) was > 100 µM (inactive), the GI50 (OVCAR-8) was > 100 µM (inactive) and the GI50 (NCI/ADR-RES) was > 100 µM (inactive). The GI50 (SNB-19) was 34 µM (inactive), the GI50 (M14) was > 100 µM (inactive) and the GI50 (IGROV-1) was > 100 µM (inactive). For the same compound, the GI50 (MDA-MB-435) was 31.7 µM (inactive), the GI50 (Malme-3M) was > 100 µM (inactive) and the GI50 (SN12C) was 50.7 µM (inactive). The GI50 (TK-10) was > 100 µM (inactive), the GI50 (KM12) was 58.6 µM (inactive) and the GI50 (BT-549) was > 100 µM (inactive). The GI50 (CCRF-CEM) was 32.6 µM (inactive), the GI50 (LOX IMVI) was 39.3 µM (inactive) and the GI50 (SF-268) was 39 µM (inactive). For the same compound, the GI50 (MDA-N) was 78 µM (inactive), the GI50 (K562) was 87.9 µM (inactive) and the GI50 (NCI-H460) was 12.9 µM (inactive). For the same compound, the GI50 (ACHN) was > 100 µM (inactive), the GI50 (T47D) was 6.56 µM (inactive) and the GI50 (MDA-MB-231) was 95.3 µM (inactive). For the same compound, the GI50 (RXF 393) was 48.2 µM (inactive), the GI50 (SK-OV-3) was > 100 µM (inactive) and the GI50 (MOLT-4) was 81.8 µM (inactive). The GI50 (MCF7) was > 100 µM (inactive), the GI50 (HT-29) was > 100 µM (inactive) and the GI50 (SNB-75) was > 100 µM (inactive). For the same compound, the GI50 (A549) was 18.2 µM (inactive), the GI50 (HL-60) was > 100 µM (inactive) and the GI50 (A498) was > 100 µM (inactive). The GI50 (HOP-92) was > 100 µM (inactive), the GI50 (HCT-15) was 59.3 µM and the GI50 (HCT-116) was 7.13 µM (inactive). For the same compound, the GI50 (SK-MEL-28) was > 100 µM (inactive), the GI50 (CAKI-1) was 45.8 µM (inactive) and the GI50 (SF-539) was > 100 µM (inactive). The GI50 (SF-295) was 31.5 µM (inactive), the GI50 (NCI-H226) was 17.4 µM (inactive) and the GI50 (UACC-257) was > 100 µM (inactive). For the same compound, the GI50 (OVCAR-4) was 13.6 µM (inactive), the GI50 (OVCAR-5) was > 100 µM (inactive) and the GI50 (PC-3) was 16.4 µM (inactive). For the same compound, the GI50 (SW-620) was > 100 µM (inactive).

From ChEMBL document CHEMBL1201862, “PubChem BioAssay data set” (2004)
